Earlier results, collected in US20110082407A1, “Combination Therapies for the Treatment of Obesity” (priority 2009, published 2011).

How the values were obtained:
[1] = in vivo
[2] = literature studies

Row | Compound | clinically significant side effect limiting clinical use [1] | weight loss of body weight for drug compared with placebo [2] | solubility in water
1 | CCCCCCCCCCC[C@@H](C[C@@H]1OC(=O)[C@H]1CCCCCC)OC(=O)[C@H](CC(C)C)NC=O [orlistat] | GI side effects | about 5% | 
2 | triacetyl-beta-cyclodextrin |  |  | insoluble
3 | CC(C)CC(N(C)C)C1(c2ccc(Cl)cc2)CCC1 (centres unmarked) [sibutramine] | can cause hypertension | about 5% | 
4 | CCNC(C)Cc1cccc(C(F)(F)F)c1 (centres unmarked) [fenfluramine] | caused heart-valve complications |  | 
5 | CCN[C@@H](C)Cc1cccc(C(F)(F)F)c1 [dexfenfluramine] | suspected heart valvulopathy | about 5% | 
